One assay has as its target T1, cyclin A-Cdk2 (Homo sapiens, UniProt P24941).
T1 construct: made in house; host or cells: insect cell Sf9 (baculovirus)
Nature of the assay: Cdk2 inhibitory action: cyclin A-Cdk2 kinase activity. Format: biochemical. Particulars: cyclin A-Cdk2, 50 μM ATP. An excerpt: In the same manner as in the case of cyclin D2-Cdk4, the cDNA of Cdk2, and the cDNA of a fusion protein of cyclin A, an activating factor of Cdk2, and glutathione S-transferase, were integrated into a baculovirus expression vector to prepare a recombinant baculovirus. This was co-transfected into insect cell Sf9 to express an active complex of the cyclin A/glutathione S-transferase fusion protein-Cdk2 at a high level. The cells were recovered and solubilized, then the active complex was adsorbed onto Glutathione Sepharose, and a cyclin A-Cdk2 complex was recovered using Precision Protease and was purified by HPLC column chromatography.
For the measurement of the activity of cyclin A-Cdk2, a synthetic peptide (Ala-Lys-Ala-Lys-Lys-Thr-Pro-Lys-Lys-Ala-Lys-Lys) was used as the substrate.
(§1) The reaction was performed by partially modifying the method of Kitagawa et al. [Oncogene, Vol. 7, 1067-1074 (1992)]. The volume of the reaction solution was 21.1 μL, and to the R buffer, purified cyclin A-Cdk2, 0.01 mg/mL of the substrate peptide, 50 μM of non-labeled adenosine triphosphate (ATP), and 1 μCi of [γ-33P]-labeled ATP (2000 to 4000 Ci/mmole) were added to react at 30° C. for 30 minutes. Then, 10 μL of 350 mM phosphate buffer was added to the reaction system to terminate the reaction. The substrate peptide was adsorbed onto P81 paper filter on a 96-well plate, and then washed several times with 75 mM phosphate buffer. The radioactivity of the substrate peptide was measured with a liquid scintillation counter.
Addition of the compound according to the invention to the reaction system was carried out by first preparing a dilution series of solutions of the compound in dimethylsulfoxide (DMSO), and adding 1.1 μL of the dilutions. A control was provided by adding 1.1 μL of DMSO to the reaction system.
A representative compound of the compounds according to the invention was selected, and the IC50 value of this compound for the cyclin A-Cdk2 activity was determined.

A further assay addresses T2, cyclin T1-Cdk9 (Homo sapiens, UniProt P50750).
T2 construct: made in house; host or cells: insect cell Sf9 (baculovirus)
Nature of the assay: Cdk9 inhibitory action: cyclin T1-Cdk9 kinase activity. Format: biochemical. Particulars: cyclin T1-Cdk9, 50 μM ATP.
Excerpt: The cDNA of Cdk9, and the cDNA of a fusion protein of cyclin T1, an activating factor of Cdk9, and glutathione S-transferase, were integrated into a baculovirus expression vector to prepare a recombinant baculovirus. This was co-transfected into insect cell Sf9 to express an active complex of the cyclin T1/glutathione S-transferase fusion protein-Cdk9 at a high level. The cells were recovered and solubilized, and the active complex was adsorbed onto Glutathione Sepharose, and then was purified by elution with 10 mM reductive glutathione. The solution containing the eluted active complex was dialyzed against B buffer (composition: 20 mM Tris-hydrochloric acid buffer (pH 7.4)/200 mM sodium chloride/0.1% Tween-20/10 mM 2-mercaptoethanol/1 mM dithiothreitol/10% glycerol) to remove the reductive glutathione.
For the measurement of the activity of cyclin T1-Cdk9, a synthetic peptide ([…] was used as the substrate.
as §1, with “cyclin T1-Cdk9, 25 μM” for “cyclin A-Cdk2, 0.01 mg/mL”, “and 0.5” for “and 1”, “for 20” for “for 30”
Addition of the compound according to the invention to the reaction system was carried out by first preparing a dilution series of solutions of the compound in dimethylsulfoxide (DMSO), and adding […] of the dilutions. A control was provided by adding 1.1 μL of DMSO to the reaction system.
A representative compound of the compounds according to the invention was selected, and the IC50 value (nM) of this compound for the cyclin T1-Cdk9 activity was determined.

The subject of the next assay is JURKAT. Nature of the assay: Inhibitory action against cell proliferation (WST-8), JURKAT. Format: cell-based. Conditions: Homo sapiens, 72 h, Jurkat cells, 3 days culture, read-out: concentration for 50% inhibition of cell proliferation (IC50), Jurkat. The protocol: Clinically isolated cancer cell lines EOL-1, KU812 and JURKAT were cultured in RPMI1640 medium containing 10% fetal calf serum at 37° C. in the presence of 5% CO2 under an atmosphere of saturated steam.
The inhibitory action against cell proliferation was measured by modifying the method of Skehan et al. [J. Natl. Cancer Inst., Vo. 82, 1107-1112 (1990)] according to the method of Ishiyama et al. [Talanta, Vol. 44, 1299 (1997)]. 100 μL each of cell culture medium containing 1×10^3 live cells of EOL-1, KU812 and JURKAT, respectively, was dispensed into each well of a 96-well cell culture dish, and the cells were cultured overnight. On the next day, a dilution series of solutions in DMSO was prepared from a DMSO solution of the compound of each Example. Then, the dilution series of solutions or DMSO only as a control for no drug addition were separately added to the medium for cell culture. Finally, 100 μL each of the culture medium containing either the dilution series of solutions of the compounds or DMSO only, was added to the cells which had been cultured in a 96-well dish, and then the cells were further cultured for 3 days.
After adding 20 μL each of WST-8 (Kishida Chemical Co., Ltd.) to each well and culturing the cells for another 2 hours, the optical densities at 450 nm were measured against a reference wavelength of 650 nm, and were compared with the control group. The results obtained by determining the concentrations for 50% inhibition of cell proliferation (IC50 (nM)) of the compounds of Examples are presented in the following Table 4.
A general note: Tetrazolium dyes change colour on reduction, which living cells bring about.

The structures appear in SMILES notation.

T2 sequence (P50750 whole entry): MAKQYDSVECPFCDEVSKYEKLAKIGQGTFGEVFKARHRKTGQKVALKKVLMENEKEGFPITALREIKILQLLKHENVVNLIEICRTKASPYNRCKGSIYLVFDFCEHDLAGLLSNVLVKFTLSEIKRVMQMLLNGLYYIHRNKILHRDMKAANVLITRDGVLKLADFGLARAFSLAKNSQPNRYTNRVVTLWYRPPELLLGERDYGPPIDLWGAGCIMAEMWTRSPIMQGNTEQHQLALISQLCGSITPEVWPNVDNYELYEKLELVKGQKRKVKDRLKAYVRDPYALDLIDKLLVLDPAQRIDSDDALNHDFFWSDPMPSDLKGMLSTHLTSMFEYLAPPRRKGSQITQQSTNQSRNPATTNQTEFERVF
T2 sequence (O60563 whole entry partner): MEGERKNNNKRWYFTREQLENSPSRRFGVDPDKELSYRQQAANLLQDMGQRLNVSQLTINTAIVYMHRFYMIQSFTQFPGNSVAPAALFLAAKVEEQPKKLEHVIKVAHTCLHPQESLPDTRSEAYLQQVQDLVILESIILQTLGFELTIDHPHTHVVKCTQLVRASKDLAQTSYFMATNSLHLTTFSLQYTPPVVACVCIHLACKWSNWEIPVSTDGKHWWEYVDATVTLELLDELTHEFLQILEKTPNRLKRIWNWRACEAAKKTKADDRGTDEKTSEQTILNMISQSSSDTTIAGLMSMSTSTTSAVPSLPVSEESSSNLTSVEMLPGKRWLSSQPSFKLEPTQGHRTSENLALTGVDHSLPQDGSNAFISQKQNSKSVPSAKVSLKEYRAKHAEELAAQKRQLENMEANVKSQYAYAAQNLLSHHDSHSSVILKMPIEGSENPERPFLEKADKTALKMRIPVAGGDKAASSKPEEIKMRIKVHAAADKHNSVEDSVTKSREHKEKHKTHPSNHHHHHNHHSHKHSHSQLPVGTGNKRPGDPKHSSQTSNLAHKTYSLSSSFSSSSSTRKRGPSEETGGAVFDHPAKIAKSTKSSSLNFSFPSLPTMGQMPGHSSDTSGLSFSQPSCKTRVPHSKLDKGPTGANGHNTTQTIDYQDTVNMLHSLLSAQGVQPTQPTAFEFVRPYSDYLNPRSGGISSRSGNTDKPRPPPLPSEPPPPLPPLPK

On to `Cc1cc(-c2cnc(Nc3cnc(CN4CCC(N(C)C)C4)cn3)s2)nc(SC2CCCCC2)n1` (stereo not drawn) [Example 94, 5-[2-(cyclohexylthio)-6-methyl-4-pyrimidinyl]-2-[5-(3-dimethylamino-1-pyrrolidinyl)methyl-2-pyrazinyl]amino-1,3-thiazole], for which the IC50 was 1700 nM at cyclin A-Cdk2, 270 nM at cyclin T1-Cdk9 and 180 nM with JURKAT.
For `Cc1cc(-c2cnc(Nc3ccc(CN4CCC[C@H]4CO)cn3)s2)nc(NC2CCCCC2)n1` [Example 137, (2S)-5-[2-(cyclohexylamino)-6-methyl-4-pyrimidinyl]-2-[5-(2-hydroxymethyl-1-pyrrolidinyl)methyl-2-pyridyl]amino-1,3-thiazole] the same measures were 4500 nM, 1100 nM and 250 nM.
For `Cc1cc(-c2cnc(Nc3cnc(CN4CCN(C)CC4)cn3)s2)nc(OC2CCCCC2)n1` [Example 1, 5-[2-(cyclohexyloxy)-6-methyl-4-pyrimidinyl]-2-[5-(4-methyl-1-piperazinyl)methyl-2-pyrazinyl]amino-1,3-thiazole], the IC50 at cyclin A-Cdk2 stood at 1700 nM; at cyclin T1-Cdk9 it was 2500 nM; with JURKAT it was 230 nM.
`Cc1cc(-c2cnc(Nc3cnc(CN4CCCC4)cn3)s2)nc(SC2CCCCC2)n1` [Example 93, 5-[2-(cyclohexylthio)-6-methyl-4-pyrimidinyl]-2-[5-(1-pyrrolidinyl)methyl-2-pyrazinyl]amino-1,3-thiazole]: the IC50 on cyclin A-Cdk2 is 480 nM; on cyclin T1-Cdk9 it was 230 nM.
As for `Cc1cc(-c2cnc(Nc3cnc(CNC(C)C)cn3)s2)nc(SC2CCCCC2)n1` [Example 96, 5-[2-(cyclohexylthio)-6-methyl-4-pyrimidinyl]-2-[5-(isopropylamino)methyl-2-pyrazinyl]amino-1,3-thiazole], the figures for the IC50 against cyclin A-Cdk2, on cyclin T1-Cdk9 and in the assay with JURKAT were 600 nM, 140 nM and 140 nM, respectively.
For `Cc1cc(-c2cnc(Nc3cnc(CNCCO)cn3)s2)nc(SC2CCCCC2)n1` [Example 99, 5-[2-(cyclohexylthio)-6-methyl-4-pyrimidinyl]-2-[5-(2-hydroxyethylamino)methyl-2-pyrazinyl]amino-1,3-thiazole], the figures for the IC50 against cyclin T1-Cdk9 and in the assay with JURKAT were 98 nM and 190 nM, respectively.
For the molecule `Cc1cc(-c2cnc(Nc3cnc(CN4CCC(N(C)C)C4)cn3)s2)nc(OC2CCCCC2)n1` (stereo not drawn) [Example 13, 5-[2-(cyclohexyloxy)-6-methyl-4-pyrimidinyl]-2-[5-(3-dimethylamino-1-pyrrolidinyl)methyl-2-pyrazinyl]amino-1,3-thiazole], the IC50 was 850 nM against cyclin A-Cdk2, 430 nM at cyclin T1-Cdk9 and 170 nM in the assay with JURKAT.
In the same order, the values of `CC(=O)N1CCN(Cc2ccc(Nc3ncc(-c4cc(C)nc(OC5CCCCC5)n4)s3)nc2)CC1` [Example 125, 5-[2-(cyclohexyloxy)-6-methyl-4-pyrimidinyl]-2-[5-(4-acetyl-1-piperazinyl)methyl-2-pyridyl]amino-1,3-thiazole] are 1600 nM, 650 nM and 260 nM.
In the case of `Cc1cc(-c2cnc(Nc3cnc(CN4CCN(C)CC4)cn3)s2)nc(NC2CCCCC2)n1` [Example 55, 5-[2-(cyclohexylamino)-6-methyl-4-pyrimidinyl]-2-[5-(4-methyl-1-piperazinyl)methyl-2-pyrazinyl]amino-1,3-thiazole], the IC50 on cyclin A-Cdk2 came to 1900 nM; on cyclin T1-Cdk9, 1400 nM.
Regarding `Cc1cc(-c2cnc(Nc3cnc(CN4CCN(C)CC4)cn3)s2)nc(Sc2ccccc2Cl)n1` [Example 109, 5-[2-(2-chlorophenylthio)-6-methyl-4-pyrimidinyl]-2-[5-(4-methyl-1-piperazinyl)methyl-2-pyrazinyl]amino-1,3-thiazole], the IC50 against cyclin A-Cdk2 was 1000 nM; on cyclin T1-Cdk9, 640 nM; in the assay with JURKAT it was 110 nM.

(Values after patent publication US7709475B2, “Selective inhibitors against Cdk4 and Cdk6 having aminothiazole skeleton” (Banyu Pharmaceutical Co., Ltd., priority 2004, dated 2010).)
